Measured values as given in patent US20110008343A1, “Method Of Reducing Tissue Loss In Pancreatic Islet Cell Transplantation” (priority 2007, published 2011).
Entries after “also recorded” stand apart in the source; their conditions may differ.

Assays:
human islets [1] = test: Binding of C3b/iC3b to human islets incubated in AB0-compatible hirudin-treated plasma (COPAS, confocal microscopy); format: cell-based
Protocol: (§1) Complex object parametric analyzer and sorter (COPAS) analysis: The fluorescence-stained islets were analyzed using a complex object parametric analyzer and sorter (COPAS; Union Biometrica, Somerville, Mass.), which is a large-particle-based flow cytometry instrument. One thousand islets were collected using a 488/514 multi-line laser, and positive cells were sorted out for further analysis by confocal microscopy. The COPAS flow cytometry data were analyzed using CellQuest™ Pro software (BD Biosciences Immunocytometry Systems). Data are reported as mean fluorescent intensity (MFI).
Confocal microscopy: Stained islets were contained in a drop of PBS in a small Petri dish and protected from light before examination in the confocal microscope (Zeiss 510 Meta confocal, Carl Zeiss, Jena, Germany). Examination of the stained islets was performed using the 488-nm laser at 10× magnification. […]
FITC-labeled antibodies recognizing the following proteins were diluted and used according to the manufacturer's recommendations: Clq (AbCam, Cambridge, UK), C3c (for detection of C3b and iC3b), C4, C9, mannose-binding lectin (MBL), IgG, and IgM (DakoCytomation, Glostrup, Denmark). […] After washing, the islets were treated with 1% formaldehyde (Apoteket, Gothenburg, Sweden) and held on ice until analyzed by COPAS and confocal microscopy.

C3a and sC5b-9 = C3a and sC5b-9 generation in supernatants of plasma-incubated human islets (ELISA); format: cell-based
Protocol: (§2) Analysis of islets by COPAS and confocal microscopy: Approximately 5000 islets were added to 200 μl of human AB0-compatible hirudin-plasma or whole blood in heparinized test tubes. In some experiments, AB0-compatible hirudin-treated plasma was pre-incubated with or without 10 μM Ac-ICV(1MeW)[…]-NH2 (SEQ ID NO: 4; Katragadda et al., (2006) J Med Chem 49:4616-4622), a potent compstatin analog, for 15 minutes at 37° C. before the islets were added. The mixture of islets and plasma was incubated, with gentle shaking, at 37° C. for up to 30 minutes.
(§3) After centrifugation and addition of 10 mM EDTA (final concentration), the supernatants were stored at −70° C. The remaining islets were washed twice in cold PBS as described above. […]
C3a: Plasma was diluted 1/1000 in working buffer and analyzed as described previously (Enkdahl et al., 1992, Scand J Immunol 35: […]). […] Bound C3a was detected with biotinylated rabbit anti-C3a diluted 1/150, followed by HRP-conjugated streptavidin (Amersham, Little Chalfort, UK), diluted 1/500. […]
sC5b-9: Plasma was analyzed using a modification of the EIA described by Mollnes et al., 1985, Scand J Immunol 22: 197-202. Plasma diluted 1/5 was added to microtiter plates coated with anti-neoC9 monoclonal antibody MCaE11. sC5b-9 was detected with a polyclonal anti-C5 antibody diluted 1/500 (Dako A/S, Denmark), followed by HRP-conjugated anti-rabbit Ig diluted 1/500 (Dako). […]

human islets [2] = test: Lysis of islet cells, PI staining analysed by COPAS; format: cell-based; settings: AB0-compatible plasma, 37° C., 30 minutes, 10 μM compstatin
Protocol: as §1, §2, §3

human islets [3] = test: C-peptide release from human islets in AB0-compatible plasma (ELISA); format: cell-based; settings: 30 minutes at 37° C., 10 μM compstatin
Protocol: as §2
After centrifugation and addition of 10 mM EDTA (final concentration), the supernatants were stored at −70° C. The remaining islets were washed twice in cold PBS as described above. In order to visualize necrotic cells, propidium iodide (PI) was added to the islets 5 minutes before COPAS analysis. Islets that had not been incubated in plasma were used as controls. The islets were also examined by confocal microscopy.
C-peptide: Plasma was diluted 1/200 and analyzed using a C-peptide ELISA (Mercodia, Uppsala, Sweden).

porcine islets = test: Binding of C3b/iC3b to porcine islets incubated in human hirudin-treated plasma; format: cell-based, pig; settings: compstatin 10 μM
Protocol: Treatment of porcine islets with human plasma: Approximately 1000 pig islets/40 μL of plasma (typically 5000 islets in 200 μL) were incubated in human hirudin-treated plasma in heparinized test tubes. Five different islet preparations and five different plasma preparations were used in these experiments. In some experiments, hirudin-treated plasma was preincubated with 10 μM (final concentration) of the potent compstatin analog, Ac-ICV(1MeW)[…]-NH2 (SEQ ID NO: 4; Katragadda et al., (2006) J Med. Chem. 49 (15): 4616), for 15 minutes at 37° C. before the islets were added. The mixture of islets and plasma was then incubated, with gentle shaking, at 37° C. for up to 30 min. […]
For all immunostaining experiments, the islets were incubated, while gently rotating on ice, for 30 minutes in the presence of an individual antibody. After being washed with PBS, the islets were treated with 1% formaldehyde (Apoteket, Gothenburg, Sweden) and kept on ice until analyzed.
Complex object parametric analyzer and sorter (COPAS) analysis: The fluorescence-stained islets were analyzed using a complex object parametric analyzer and sorter (COPAS; Union Biometrica, Somerville, Mass.), which is a large particle-based flow cytometry instrument previously used for islet analysis (Fernandez et al., (2005) Transplantation 80 (6): 729). […]

complement activation = test: Complement inhibition assay in 10% human serum (bound C3 fragments in microtiter wells); format: biochemical
Protocol: Complement inhibition assay: One hundred microliters of 10% human serum (v/v), diluted in veronal buffer with 1 mM Ca^2+, 0.3 mM Mg^2+, 1% (w/v) BSA, and 0.05% (v/v) Tween 20, was incubated in the presence of serially diluted LMW-DS and/or compstatin in wells of microtiter plates for 30 minutes at 37° C. The wells were then washed with PBS containing 0.05% (v/v) Tween 20, and the bound C3 fragments were detected using […], of HRP-conjugated anti-C3c (Dako AS, Glostrup, Denmark).

[4] = Blood cell counts, liver and renal function in monkeys transplanted with porcine islets; format: in vivo, Cynomolgus monkeys (Macaca fascicularis); settings: 24 hours after islet transplantation; in U/L (unit assumed)
[5] = Plasma APTT and LMW-DS concentration in transplanted monkeys; format: in vivo, Cynomolgus monkeys (Macaca fascicularis)
Protocol: Blood samples: […] […] Analyses of blood and plasma samples: Activated Partial Thromboplastin Time (APTT) measurements were performed as previously described (Johansson et al., (2006) Am J. Transplant. 6 (2): 305).

porcine islet grafts [6] = test: Histological evaluation of grafted pig islets 24 h after intraportal transplantation
IBMIR = system: IBMIR
Protocol: Blood samples: All blood samples from monkeys were drawn from a femoral vein catheter at 0, 20, and 40 min and at 1, 3 and 24 h after transplantation. Blood was drawn from healthy human blood donors into 7-mL tubes containing […] of hirudin, a specific inhibitor of thrombin (Refludan; Pharmion Ltd, Cambridge, UK). To obtain plasma, the samples were centrifuged at 4500×g for 5 min. If not immediately analyzed for activated partial thromboplastin time (APTT), the samples were stored at −70° C.
Platelet counts and differential leukocyte counts were obtained using a Coulter ACT-diff analyzer (Beckman Coulter, Miami, Fla.) and EDTA-treated blood. Plasma levels of thrombin-antithrombin (TAT) were quantified using commercially available EIA kits (TAT, Behringswerke, Marburg, Germany). C3a generation was measured in plasma according to the method of Nilsson Ekdahl et al. ((1992) Scand J. Immunol. 35 (1): 85), and sC5b-9 was analyzed using a modification of the enzyme immunoassay described by Nilsson Ekdahl et al. ((1992) Scand J. Immunol. 35 (1): 85) and Mollnes et al. ((1995) Artif Organs 19 (9): 909).

porcine islet grafts [7] = test: Immunohistochemical staining of grafted pig islets 24 h after intraportal transplantation
[8] = both treated monkeys compared to the controls

## Ac-ICV(1MeW)QDWGAHRCT-NH2 [compstatin]
Human islets [1]; human islets in plasma, 5 and 30 minutes
  C3b/iC3b binding by confocal microscopy: totally prevented
Human islets [1]; human islets, AB0-compatible plasma, compstatin 10 μM, COPAS
  binding of C3b/iC3b to the islets: significantly reduced; also recorded: abolished
C3a and sC5b-9; human islets, AB0-compatible plasma, compstatin 10 μM
  generation of fluid-phase complement activation products (C3a, sC5b-9): abrogated
Human islets [2]
  PI staining (lysis of islet cells): totally abrogated
Human islets [3]
  release of C-peptide: totally inhibited
Porcine islets
  binding of C3b/iC3b to the islets: significantly reduced
Complement activation; compstatin 5 μM
  inhibition of complement activation: total inhibition
Complement activation; compstatin above 0.5 μM
  inhibition of complement activation: gradually inhibited
Complement activation; compstatin below 0.5 μM
  inhibition of complement activation: no effect

## Heparin
[4]
  ALT: 116.8±47.7
  AST: 288.0±130.4
[5]; heparin-treated monkeys, throughout the whole study period
  APTT: 25 to 40 s (s)
Porcine islet grafts [6]; control monkey M-10
  completely preserved islets (score 0 in all categories): 22%

## Low molecular weight dextran sulfate [LMW-DS]
[5]; LMW-DS-treated monkeys, 15 minutes after islet infusion
  APTT: around 100 s
[5]; monkey M-5, after 24 hours
  APTT: 101 s
[5]; monkey M-7, after 24 hours
  APTT: 66 s
[5]; monkey M-9, after 24 hours
  APTT: 107 s
IBMIR; LMW-DS-treated monkeys vs heparin controls
  increase of coagulation marker TAT: effectively inhibited
IBMIR; [8]
  complement activation parameter C3a: suppressed
  complement activation parameter sC5b-9: suppressed
IBMIR; monkey M-5
  TAT: totally suppressed
Complement activation; LMW-DS above 100 mg/L, absence of compstatin
  inhibition of complement activation: more pronounced
Complement activation; LMW-DS between 10 and 100 mg/L, absence of compstatin
  inhibition of complement activation: only marginally
Porcine islet grafts [6]; 24 h after transplantation, semiquantitative scoring
  histology of the transplanted grafts: well kept
Porcine islet grafts [6]; monkey M-6 as printed
  completely preserved islets (score 0 in all categories): 37.2%
Porcine islet grafts [6]; monkey M-9
  completely preserved islets (score 0 in all categories): 44%
Porcine islet grafts [7]; 24 h grafts
  deposition of C3 fragment and C9 on the surface of the islets: no clear inhibition
Porcine islet grafts [7]; vs controls M8 and M10
  CD3+ T cell infiltration: effectively suppressed
Porcine islet grafts [7]; vs heparin controls, p=0.002
  CD68+ macrophages in grafts: abrogated
Porcine islet grafts [7]; vs heparin controls, p=0.04
  neutrophil elastase positive PMNs in grafts: abrogated
Porcine islet grafts [7]; vs heparin controls, p=0.056
  CD41+ platelets in grafts: abrogated

## hirudin
C3a and sC5b-9; islets in whole blood anticoagulated with hirudin, n=4
  generation of C3a and sC5b-9: no effect
